ChEMBL document CHEMBL2092589, “Liver-stage malaria parasites vulnerable to diverse chemical scaffolds” (Proc Natl Acad Sci U S A, 2012)
Where a name gives a salt, the structure may show the parent alone.

How the values were obtained:
Plasmodium falciparum [1] = experiment: HARVARD: Inhibition of blood stage Plasmodium falciparum 3D7 infection; type: functional, organism-based
Plasmodium berghei = experiment: HARVARD: Inhibition of liver stage Plasmodium berghei infection in HepG2 cells; type: functional, organism-based, ANKA
[2] = (§1) HARVARD: Cytotoxicity in HepG2 cell line; details: human, HepG2 cells
Plasmodium falciparum [3] = experiment: HARVARD: Inhibition of blood stage Plasmodium falciparum Dd2 infection; type: functional, organism-based
HepG2 = experiment: as §1; details: human, HepG2 cells
[4] = Plasmodium berghei, ANKA, HepG2

CC(=O)[C@]1(O)Cc2c(O)c3c(c(O)c2[C@@H](O[C@H]2C[C@H](N)[C@H](O)[C@H](C)O2)C1)C(=O)c1ccccc1C3=O [IDARUBICIN]
IC50 (Plasmodium falciparum [1]; Plasmodium falciparum, 3D7): > 5 µM
IC50 (Plasmodium berghei; [4]): 6.62 µM
IC50 [2]: 12.3 µM
IC50 (Plasmodium falciparum [3]; Plasmodium falciparum, Dd2): > 5 µM

O=C(c1ccc(F)cc1)C1CCN(CCn2c(=O)[nH]c3ccccc3c2=O)CC1 [KETANSERIN TARTRATE]
IC50 (Plasmodium berghei; [4]): 1.34 µM
IC50 [2]: > 100 µM
IC50 (Plasmodium falciparum [3]; Plasmodium falciparum, Dd2): > 5 µM

CC[C@@H](C(=O)[C@@H](C)[C@@H](O)[C@H](C)CCc1ccc(C)c(O)c1C(=O)O)[C@H]1O[C@](CC)([C@H]2CC[C@](O)(CC)[C@H](C)O2)C[C@@H]1C [LASALOCID A SODIUM]
IC50 (Plasmodium berghei; [4]): 0.011 µM
IC50 [2]: > 100 µM

CC[C@@]1([C@@H]2O[C@@H]([C@H]3O[C@@](O)(CO)[C@H](C)C[C@@H]3C)C[C@@H]2C)CC[C@H]([C@]2(C)CC[C@]3(C[C@H](O)[C@@H](C)[C@@H]([C@@H](C)[C@@H](OC)[C@H](C)C(=O)O)O3)O2)O1 [MONENSIN SODIUM]
IC50 [2]: > 100 µM

CC[C@@]1([C@H]2O[C@H]([C@H]3O[C@@](O)(CO)[C@H](C)C[C@@H]3C)C[C@H]2C)CC[C@H]([C@@]2(C)CC[C@]3(C[C@H](O)[C@@H](C)[C@@H]([C@H](C)[C@H](OC)[C@@H](C)C(=O)O)O3)O2)O1 [MONENSIN SODIUM]
IC50 (Plasmodium berghei; [4]): 0.0006 µM

COc1c(C)c2c(c(O)c1C/C=C(\C)CCC(=O)O)C(=O)OC2 [MYCOPHENOLIC ACID]
IC50 (Plasmodium berghei; [4]): 1 µM
IC50 [2]: > 100 µM
IC50 (Plasmodium falciparum [3]; Plasmodium falciparum, Dd2): > 5 µM

CCCCCCCCCc1ccc(OCCOCCOCCOCCOCCOCCOCCOCCOCCO)cc1 [NONOXYNOL 9]
IC50 (Plasmodium berghei; [4]): 2.31 µM
IC50 [2]: 61 µM
IC50 (Plasmodium falciparum [3]; Plasmodium falciparum, Dd2): > 5 µM

CC[C@@H]1C=CC=CC[C@H](C)[C@@H](O)[C@@H](C)C(=O)[C@H](C)[C@@H](O)[C@H](C)C(=O)[C@H](C)[C@@H](O)[C@H](C)C=CC(=O)O[C@H]2[C@@H](C)[C@@H](CC1)O[C@@]1(CC[C@@H](C)[C@@H](C[C@H](C)O)O1)[C@@H]2C [OLIGOMYCIN C]
IC50 (Plasmodium berghei; [4]): 0.0005 µM
IC50 [2]: 15 µM
IC50 (Plasmodium falciparum [3]; Plasmodium falciparum, Dd2): 0.111 µM

COc1ccc2[nH]c([S+]([O-])Cc3ncc(C)c(OC)c3C)nc2c1 (centres undefined) [OMEPRAZOLE]
IC50 (Plasmodium falciparum [1]; Plasmodium falciparum, 3D7): > 50 µM
IC50 (Plasmodium berghei; [4]): 0.68 µM
IC50 [2]: > 10 µM
IC50 (Plasmodium falciparum [3]; Plasmodium falciparum, Dd2): > 50 µM

CO[C@H](C(=O)[C@@H](O)[C@@H](C)O)[C@@H]1Cc2cc3cc(O[C@H]4C[C@@H](O[C@H]5C[C@@H](O)[C@H](O)[C@@H](C)O5)[C@H](O)[C@@H](C)O4)c(C)c(O)c3c(O)c2C(=O)[C@H]1O[C@H]1C[C@@H](O[C@H]2C[C@@H](O[C@H]3C[C@](C)(O)[C@H](O)[C@@H](C)O3)[C@@H](O)[C@@H](C)O2)[C@H](O)[C@@H](C)O1 [PLICAMYCIN]
IC50 [2]: > 10 µM

CO[C@H](C(=O)[C@@H](O)[C@@H](C)O)[C@@H]1Cc2cc3cc(O[C@H]4C[C@@H](O[C@@H]5C[C@@H](O)[C@H](O)[C@@H](C)O5)[C@H](O)[C@@H](C)O4)c(C)c(O)c3c(O)c2C(=O)[C@H]1O[C@H]1C[C@@H](O[C@@H]2C[C@@H](O)[C@@H](O[C@@H]3C[C@](C)(O)[C@H](O)[C@@H](C)O3)[C@@H](C)O2)[C@H](O)[C@@H](C)O1 [PLICAMYCIN]
IC50 (Plasmodium falciparum [1]; Plasmodium falciparum, 3D7): 0.015 µM
IC50 (Plasmodium berghei; [4]): 0.833 µM
IC50 (Plasmodium falciparum [3]; Plasmodium falciparum, Dd2): 0.0125 µM

COc1cc(NC(C)CCCN)c2ncccc2c1 (centres undefined) [PRIMAQUINE PHOSPHATE]
IC50 (Plasmodium berghei; [4]): 7.4 µM
IC50 [2]: > 100 µM
IC50 (Plasmodium falciparum [3]; Plasmodium falciparum, Dd2): 0.794 µM

CCCC(C(=O)OCCN(CC)CC)(c1ccccc1)c1ccccc1 [PROADIFEN HYDROCHLORIDE]
IC50 (Plasmodium berghei; [4]): 2.78 µM
IC50 [2]: 57 µM
IC50 (Plasmodium falciparum [3]; Plasmodium falciparum, Dd2): 0.722 µM

CCc1nc(N)nc(N)c1-c1ccc(Cl)cc1 [PYRIMETHAMINE]
IC50 (Plasmodium berghei; [4]): 0.0047 µM
IC50 [2]: > 10 µM

CC[C@@H](C(=O)[C@@H](C)[C@@H](O)[C@H](C)[C@@H]1O[C@@H]([C@@H](CC)C(=O)O)CC[C@@H]1C)[C@H]1O[C@]2(C=C[C@@H](O)[C@]3(CC[C@@](C)([C@H]4CC[C@](O)(CC)[C@H](C)O4)O3)O2)[C@H](C)C[C@@H]1C [SALINOMYCIN SODIUM]
IC50 (Plasmodium berghei; [4]): 0.002 µM
IC50 [2]: 58 µM

CC(C)=CC[C@@H](O)C1=CC(=O)c2c(O)ccc(O)c2C1=O [SHIKONIN]
IC50 (Plasmodium falciparum [1]; Plasmodium falciparum, 3D7): > 5 µM
IC50 (Plasmodium berghei; [4]): 1.37 µM
IC50 [2]: 28.1 µM
IC50 (Plasmodium falciparum [3]; Plasmodium falciparum, Dd2): > 5 µM

COc1ccc2[nH]c([S+]([O-])Cc3ncc(C)c(OC)c3C)nc2n1 (centres undefined) [TENATOPRAZOLE]
IC50 (Plasmodium falciparum [1]; Plasmodium falciparum, 3D7): > 5 µM
IC50 (Plasmodium berghei; [4]): 0.224 µM
IC50 [2]: > 10 µM
IC50 (Plasmodium falciparum [3]; Plasmodium falciparum, Dd2): > 5 µM

CCCOc1ccccc1-c1nc2nn[nH]c2c(=O)[nH]1 [ZAPRINAST]
IC50 (Plasmodium falciparum [1]; Plasmodium falciparum, 3D7): > 50 µM
IC50 (Plasmodium berghei; [4]): 7.79 µM
IC50 [2]: > 10 µM
IC50 (Plasmodium falciparum [3]; Plasmodium falciparum, Dd2): 19.3 µM

AURANOFIN
IC50 (Plasmodium falciparum [1]): 0.343 µM
IC50 (Plasmodium berghei; hepg2): 0.108 µM
IC50 (HepG2): 5.6 µM
IC50 (Plasmodium falciparum [3]): 0.316 µM
